Test results taken from PubChem BioAssay AID250 (DTP/NCI, 2004).
Several values for one entry are separate records, joined by “and”; a condition that tells them apart may be missing. Equal values may be shown once. Inconclusive results and toxic doses are left out.

System: BDF1 mice, L1210 leukemia sc, survival T/C
Test: NCI In Vivo Anticancer Drug Screen. Data for tumor model L1210 Leukemia (subcutaneous) in B6D2F1 (BDF1) mice
Conditions: endpoint: median survival time, higher = longer survival
Procedure: The antitumor activity of compounds was measured in mice bearing transplantable tumors. Survival or tumor size were measured and the results are expressed as the measurement made in the treated group (T) divided by the measurement made in the vehicle treated control group (C). The tumor model used in this assay is L1210 Leukemia (subcutaneous) in B6D2F1 (BDF1) mice

[1] = dose: 108.0 mg/kg/injection, schedule: Q01DX Z (sc), vehicle: saline
[2] = dose: 180.0 mg/kg/injection, schedule: Q01DX Z (sc), vehicle: saline
[3] = dose: 108.0 mg/kg/injection, schedule: Q01DX Z (sc), vehicle: methylcellulose (MC)

SMILES: CC[C@](O)(C(=O)O)c1cc2n(c(=O)c1CO)Cc1cc3ccccc3nc1-2
- T/C (dose: 0.5 mg/kg/injection, schedule: Q01DX009 (ip), vehicle: saline): 104 % of control
- T/C (dose: 0.5 mg/kg/injection, schedule: Q01DX009 (sc), vehicle: saline): 104 % of control
- T/C (dose: 1.0 mg/kg/injection, schedule: Q01DX009 (ip), vehicle: saline): 102 % of control
- T/C (dose: 1.0 mg/kg/injection, schedule: Q01DX009 (sc), vehicle: saline): 104 % of control
- T/C (dose: 2.0 mg/kg/injection, schedule: Q01DX009 (ip), vehicle: saline): 116 % of control
- T/C (dose: 2.0 mg/kg/injection, schedule: Q01DX009 (sc), vehicle: saline): 110 % of control
- T/C (dose: 6.25 mg/kg/injection, schedule: Q02DX005 (sc), vehicle: saline): 115 % of control and 120 % of control
- T/C (dose: 6.25 mg/kg/injection, schedule: Q04DX003 (sc), vehicle: saline): 115 % of control and 116 % of control
- T/C (dose: 8.4 mg/kg/injection, schedule: Q04DX003 (sc), vehicle: saline): 122 % of control and 123 % of control
- T/C (dose: 12.5 mg/kg/injection, schedule: Q02DX005 (sc), vehicle: saline): 156 % of control
- T/C (dose: 14.0 mg/kg/injection, schedule: Q07DX003 (sc), vehicle: saline): 115 % of control and 122 % of control
- T/C (dose: 18.0 mg/kg/injection, schedule: Q04DX003 (sc), vehicle: saline): 118 % of control and 120 % of control
- T/C (dose: 18.0 mg/kg/injection, schedule: Q07DX003 (sc), vehicle: saline): 118 % of control and 120 % of control
- T/C (dose: 20.0 mg/kg/injection, schedule: Q07DX003 (sc), vehicle: saline): 120 % of control and 121 % of control
- T/C (dose: 23.0 mg/kg/injection, schedule: Q07DX003 (sc), vehicle: saline): 120 % of control and 122 % of control
- T/C (dose: 25.0 mg/kg/injection, schedule: Q02DX005 (sc), vehicle: saline): 165 % of control and 170 % of control
- T/C (dose: 25.0 mg/kg/injection, schedule: Q07DX003 (sc), vehicle: saline): 150 % of control and 151 % of control
- T/C (dose: 30.0 mg/kg/injection, schedule: Q04DX003 (sc), vehicle: saline): 120 % of control
- T/C (dose: 30.0 mg/kg/injection, schedule: Q07DX003 (sc), vehicle: saline): 120 % of control and 121 % of control
- T/C (dose: 32.0 mg/kg/injection, schedule: Q07DX003 (sc), vehicle: saline): 155 % of control and 158 % of control
- T/C (dose: 39.0 mg/kg/injection, schedule: Q07DX003 (sc), vehicle: saline): 120 % of control and 122 % of control
- T/C (dose: 39.0 mg/kg/injection, schedule: Q09DX003 (sc), vehicle: saline): 116 % of control and 117 % of control
- T/C (dose: 40.0 mg/kg/injection, schedule: Q04DX003 (sc), vehicle: saline): 160 % of control and 181 % of control
- T/C (dose: 50.0 mg/kg/injection, schedule: Q01DX001 (sc), vehicle: saline): 118 % of control and 120 % of control
- T/C (dose: 62.0 mg/kg/injection, schedule: Q07DX003 (sc), vehicle: saline): 175 % of control and 176 % of control
- T/C (dose: 65.0 mg/kg/injection, schedule: Q07DX003 (sc), vehicle: saline): 121 % of control and 122 % of control
- T/C (dose: 65.0 mg/kg/injection, schedule: Q09DX003 (sc), vehicle: saline): 122 % of control
- T/C (dose: 78.0 mg/kg/injection, schedule: Q07DX003 (sc), vehicle: saline): 180 % of control and 181 % of control
- T/C (dose: 80.0 mg/kg/injection, schedule: Q04DX003 (sc), vehicle: saline): 115 % of control and 118 % of control
- T/C (dose: 80.0 mg/kg/injection, schedule: Q07DX003 (sc), vehicle: saline): 120 % of control and 123 % of control
- T/C (dose: 83.3 mg/kg/injection, schedule: Q01DX001 (sc), vehicle: saline): 120 % of control and 121 % of control
- T/C (dose: 98.0 mg/kg/injection, schedule: Q07DX003 (sc), vehicle: saline): 118 % of control and 120 % of control
- T/C (dose: 108.0 mg/kg/injection, schedule: Q07DX003 (sc), vehicle: saline): 120 % of control and 122 % of control
- T/C (dose: 108.0 mg/kg/injection, schedule: Q09DX003 (sc), vehicle: saline): 122 % of control
- T/C (dose: 122.0 mg/kg/injection, schedule: Q07DX003 (sc), vehicle: saline): 118 % of control and 120 % of control
- T/C (dose: 148.0 mg/kg/injection, schedule: Q01DX001 (sc), vehicle: saline): 110 % of control
- T/C (dose: 160.0 mg/kg/injection, schedule: Q04DX003 (sc), vehicle: saline): 90 % of control and 93 % of control
- T/C (dose: 160.0 mg/kg/injection, schedule: Q07DX003 (sc), vehicle: saline): 110 % of control and 122 % of control
- T/C (dose: 180.0 mg/kg/injection, schedule: Q09DX003 (sc), vehicle: saline): 116 % of control and 118 % of control
- T/C (dose: 191.0 mg/kg/injection, schedule: Q07DX003 (sc), vehicle: saline): 150 % of control
- T/C (dose: 246.0 mg/kg/injection, schedule: Q01DX001 (sc), vehicle: saline): 110 % of control
- T/C (dose: 300.0 mg/kg/injection, schedule: Q09DX003 (sc), vehicle: saline): 100 % of control and 101 % of control
- T/C (dose: 320.0 mg/kg/injection, schedule: Q07DX003 (sc), vehicle: saline): 90 % of control
- T/C (dose: 468.0 mg/kg/injection, schedule: Q07DX003 (sc), vehicle: saline): 120 % of control and 121 % of control
- T/C (dose: 731.0 mg/kg/injection, schedule: Q07DX003 (sc), vehicle: saline): 90 % of control and 93 % of control
- T/C (dose: 800.0 mg/kg/injection, schedule: Q07DX003 (sc), vehicle: saline): 88 % of control

SMILES: O=c1nc2[nH]c(=O)[nH]c(=O)c2n[nH]1
- T/C (dose: 10.0 mg/kg/injection, schedule: Q01DX Z (sc), vehicle: saline): 100 % of control
- T/C (dose: 28.0 mg/kg/injection, schedule: Q01DX Z (sc), vehicle: saline): 100 % of control
- T/C (dose: 47.0 mg/kg/injection, schedule: Q01DX Z (sc), vehicle: saline): 100 % of control
- T/C (dose: 78.0 mg/kg/injection, schedule: Q01DX Z (sc), vehicle: saline): 100 % of control

SMILES: C[n+]1cccc2cc(NC(=O)c3ccc(C(=O)Nc4ccc5c(ccc[n+]5C)c4)cc3)ccc21
- T/C (dose: 3.0 mg/kg/injection, schedule: Q01DX Z (sc), vehicle: saline): 100 % of control
- T/C (dose: 5.0 mg/kg/injection, schedule: Q01DX Z (sc), vehicle: saline): 100 % of control
- T/C (dose: 8.4 mg/kg/injection, schedule: Q01DX Z (sc), vehicle: saline): 100 % of control
- T/C (dose: 14.0 mg/kg/injection, schedule: Q01DX Z (sc), vehicle: saline): 105 % of control
- T/C (dose: 23.0 mg/kg/injection, schedule: Q01DX Z (sc), vehicle: saline): 100 % of control
- T/C (dose: 39.0 mg/kg/injection, schedule: Q01DX Z (sc), vehicle: saline): 233 % of control
- T/C (dose: 65.0 mg/kg/injection, schedule: Q01DX Z (sc), vehicle: saline): 172 % of control
- T/C [1]: 205 % of control
- T/C [2]: 194 % of control

SMILES: CCc1nc(N)nc(N)c1-c1ccc(Cl)cc1
- T/C [3]: 118 % of control

SMILES: O=c1[nH]cc(Br)c(=O)[nH]1
- T/C (dose: 38.9 mg/kg/injection, schedule: Q01DX Z (sc), vehicle: saline): 91 % of control
- T/C (dose: 64.8 mg/kg/injection, schedule: Q01DX Z (sc), vehicle: saline): 95 % of control
- T/C [1]: 100 % of control
- T/C [2]: 100 % of control
- T/C (dose: 300.0 mg/kg/injection, schedule: Q01DX Z (sc), vehicle: saline): 100 % of control
- T/C (dose: 500.0 mg/kg/injection, schedule: Q01DX Z (sc), vehicle: saline): 100 % of control

SMILES: O=C(Nc1ccc(NC2=NCCN2)cc1)c1ccc(C(=O)Nc2ccc(NC3=NCCN3)cc2)cc1
- T/C (dose: 1.08 mg/kg/injection, schedule: Q01DX Z (sc), vehicle: water): 110 % of control
- T/C (dose: 1.8 mg/kg/injection, schedule: Q01DX Z (sc), vehicle: water): 110 % of control
- T/C (dose: 5.0 mg/kg/injection, schedule: Q01DX Z (sc), vehicle: water): 260 % of control
- T/C (dose: 8.4 mg/kg/injection, schedule: Q01DX Z (sc), vehicle: water): 175 % of control
- T/C (dose: 14.0 mg/kg/injection, schedule: Q01DX Z (sc), vehicle: water): 150 % of control

SMILES: COc1cccc(/C=N/NC(N)=S)c1
- T/C (dose: 78.0 mg/kg/injection, schedule: Q01DX Z (sc), vehicle: water): 100 % of control
- T/C (dose: 130.0 mg/kg/injection, schedule: Q01DX Z (sc), vehicle: water): 105 % of control
- T/C (dose: 216.0 mg/kg/injection, schedule: Q01DX Z (sc), vehicle: water): 100 % of control

SMILES: CC/C(=C(/CC)c1ccc(O)cc1)c1ccc(O)cc1
- T/C [3]: 100 % of control
- T/C (dose: 300.0 mg/kg/injection, schedule: Q01DX Z (sc), vehicle: methylcellulose (MC)): 100 % of control
